No end group written: not given here.

Results on two substances are retold here after US20230301893A1, “Hair Growth and Scalp Preparations” (priority 2020, published 2023).

Series [1] has as its system normal human vascular endothelial cells (NHVEC). As to the kind of experiment: Boyden chamber migration assay. The conditions noted are these: for cell migration over migration in the presence of media alone / migration response compared to three positive controls (VEGF, PDGF, FGF): 100 ng/ml; for Cell Number per HPF, Chamber 1 / Cell Number per HPF, Chamber 2 / Cell Number per HPF, Chamber 3 / Cell Number per HPF, Mean: 5×10^4 cells per well. It is filed as cell-based. The method, then: The effects of TB4 and TA1 on endothelial cell migration were determined. To investigate the possibility that these peptides effect the migration of normal human vascular endothelial cells (NHVEC) in vitro, a Boyden chamber migration assay was performed.
In the experiments of Table 1 and FIG. 1, normal human microvesicular endothelial cells are used at 5×10^4 cells per well. The wells are coated with 100 µg/ml […] Type IV.

Series [2] can be described thus: Isoelectric point of the peptide. It is filed as physicochemical.
The test system of series [3] is endothelial cells. Description: MTT (tetrazolium) endothelial cell proliferation assay. The format is cell-based. As to conditions: 10 ng/ml; 4 hours and 24 hours tested. On the procedure:
The effects of TB4 and TA1 on endothelial cell proliferation were determined using a MTT (tetrazolium) assay. The results are shown in FIG. 2 for 4 hours and 24 hours and for three concentrations of these peptides, 10 ng/ml, 100 ng/ml, and 1000 ng/ml. […] At a concentration of 10 ng/ml, TB4 and TA1 maximally stimulated cell proliferation approximately 2-fold and 3-fold over that of the control, respectively.

Consider “Ac-ANKGQAPGEAMKPSFLKEKKEVVERSKEEEGPAKMNLVIEMPKD (Ac-ANKGQAPGEAMKPSFLKEKKEVVERSKEEEGPAKMNLVIEMPKD) [TB4]”, for which, in series [1], the “cell migration over migration in the presence of media alone” value is recorded as “significantly enhanced” and the “migration response compared to three positive controls (VEGF, PDGF, FGF)” value was “heightened responses”.

Take “Ac-SDAAVDTSSEITTKDLKEKKEVVEEAEN (Ac-SDAAVDTSSEITTKDLKEKKEVVEEAEN) [TA1, may be derived by cleavage of thymosin]”: in series [2], the isoelectric point is recorded as 4.1. Moreover, the “maximal stimulation of cell proliferation over that of the control” value in series [3] was ~3 fold. In addition, in series [1] (0.1 µg/ml), the “Cell Number per HPF, Chamber 1” value is given as 38 per HPF; the “Cell Number per HPF, Chamber 2” value stood at 45 per HPF; the “Cell Number per HPF, Chamber 3” value amounted to 33 per HPF; the “Cell Number per HPF, Mean” value is 39 per HPF. Moreover, in series [1], the “cell migration over migration in the presence of media alone” value is listed as “significantly enhanced” and the “migration response compared to three positive controls (VEGF, PDGF, FGF)” value is given as “heightened responses”. Besides, in series [1] (0.5 µg/ml), the “Cell Number per HPF, Chamber 1” value was determined as 52 per HPF; the “Cell Number per HPF, Chamber 2” value is reported as 53 per HPF; the “Cell Number per HPF, Chamber 3” value worked out at 57 per HPF; the “Cell Number per HPF, Mean” value worked out at 54 per HPF. In series [1] (1 µg/ml), the “Cell Number per HPF, Chamber 1” value is 64 per HPF; the “Cell Number per HPF, Chamber 2” value is given as 69 per HPF; the “Cell Number per HPF, Chamber 3” value came out at 43 per HPF; the “Cell Number per HPF, Mean” value was found to be 59 per HPF. Also, in series [1] (5 µg/ml), the “Cell Number per HPF, Chamber 1” value came out at 35 per HPF; the “Cell Number per HPF, Chamber 2” value is given as 64 per HPF; the “Cell Number per HPF, Chamber 3” value was determined as 72 per HPF; the “Cell Number per HPF, Mean” value was determined as 57 per HPF. Also, in series [1] (10 µg/ml), the “Cell Number per HPF, Chamber 1” value is 51 per HPF; the “Cell Number per HPF, Chamber 2” value amounted to 55 per HPF; the “Cell Number per HPF, Chamber 3” value is reported as 66 per HPF; the “Cell Number per HPF, Mean” value came out at 57 per HPF. For the same substance, in series [1] (dose response), the “concentration of maximal effect on migration” value is 100 ng/mL.
